Source: the supplement of paper PMC9663587

Legend:
[1] = compound: CCc1cnn2c(NCc3ccc[n+]([O-])c3)cc(N3CCCC[C@H]3CCO)nc12
LEE011/Ribociclib [2] = compound: T1, CN(C)C(=O)c1cc2cnc(Nc3ccc(N4CCNCC4)cn3)nc2n1C1CCCC1 [LEE011/Ribociclib]
Doxorubicin = compound: COc1cccc2c1C(=O)c1c(O)c3c(c(O)c1C2=O)C[C@@](O)(C(=O)CO)C[C@@H]3O[C@H]1C[C@H](N)[C@H](O)[C@H](C)O1 [Doxorubicin]
Pictilisib/GDC0941 = compound: CS(=O)(=O)N1CCN(Cc2cc3nc(-c4cccc5[nH]ncc45)nc(N4CCOCC4)c3s2)CC1 [Pictilisib/GDC0941]
Ceritinib/LDK378 = compound: Cc1cc(Nc2ncc(Cl)c(Nc3ccccc3S(=O)(=O)C(C)C)n2)c(OC(C)C)cc1C1CCNCC1 [Ceritinib/LDK378]
[3] = compound: Cc1nn(C)c(COc2ccc(N3CCN(S(=O)(=O)N(C)C)CC3)cc2)c1-c1cccc2c(CCCOc3cccc4ccccc34)c(C(=O)O)n(CCN3CCOCC3)c12
YKL-5-124 = compound: C=CC(=O)Nc1ccc(C(=O)Nc2[nH]nc3c2CN(C(=O)N[C@H](CN(C)C)c2ccccc2)C3(C)C)cc1 [YKL-5-124]; experiment: increase in dead-cell fraction, 72 h; higher = more death;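 note: breast cancer cell lines in 384-well plates, stained with Hoechst plus LIVE/DEAD far red dye and imaged, cells above an LDR intensity threshold counted dead, Hoechst-negative corpses included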
BSJ-03-123 = compound: CC(=O)c1c(C)c2cnc(Nc3ccc(N4CCN(CCOCCOCCOCCNC(=O)COc5cccc6c5C(=O)N(C5CCC(=O)NC5=O)C6=O)CC4)cn3)nc2n(C2CCCC2)c1=O [BSJ-03-123]; experiment: as above
[4] = compound: CC(=O)c1c(C)c2cnc(Nc3ccc(N4CCNCC4)cn3)nc2n(C2CCCC2)c1=O; experiment: as above
[5] = compound: CCN1CCN(Cc2ccc(Nc3ncc(F)c(-c4cc(F)c5nc(C)n(C(C)C)c5c4)n3)nc2)CC1; experiment: as above
Neratinib/HKI272 = compound: CCOc1cc2ncc(C#N)c(Nc3ccc(OCc4ccccn4)c(Cl)c3)c2cc1NC(=O)/C=C/CN(C)C [Neratinib/HKI272]; experiment: as above
[6] = compound: CCc1cnn2c(NCc3ccc[n+]([O-])c3)cc(N3CCCC[C@H]3CCO)nc12; experiment: as above
LEE011/Ribociclib [7] = compound: T1, LEE011/Ribociclib; experiment: as above
THZ531 = compound: CN(C)C/C=C/C(=O)Nc1ccc(C(=O)N2CCC[C@@H](Nc3ncc(Cl)c(-c4c[nH]c5ccccc45)n3)C2)cc1 [THZ531]; experiment: as above
THZ1 = compound: CN(C)C/C=C/C(=O)Nc1ccc(C(=O)Nc2cccc(Nc3ncc(Cl)c(-c4c[nH]c5ccccc45)n3)c2)cc1 [THZ1]; experiment: as above
Flavopiridol = compound: CN1CC[C@H](c2c(O)cc(O)c3c(=O)cc(-c4ccccc4Cl)oc23)[C@H](O)C1 [Flavopiridol]; experiment: as above
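Throughout, for GR50, 72 h: breast cancer and non-malignant breast epithelial cell lines, Deep Dye Drop or Dye Drop imaging, nine half-log doses, GR normalized to time-zero plates and DMSO-only controls.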

Cell Line: HTERT_HME1
- GR50, 72 h [1]: 0.0121 µM
- GR50, 72 h (LEE011/Ribociclib [2]): 1.2 µM
- GR50, 72 h (Doxorubicin): 0.00471 µM
- GR50, 72 h (Pictilisib/GDC0941): 2.8 µM
- GR50, 72 h (Ceritinib/LDK378): 0.822 µM
- GR50, 72 h [3]: 0.899 µM
- increase in dead-cell fraction (YKL-5-124; 0.001 µM): 0.0989
- increase in dead-cell fraction (YKL-5-124; 0.003162 µM): 0.131
- increase in dead-cell fraction (YKL-5-124; 0.01 µM): 0.165
- increase in dead-cell fraction (YKL-5-124; 0.03162 µM): 0.151
- increase in dead-cell fraction (YKL-5-124; 0.1 µM): 0.181
- increase in dead-cell fraction (YKL-5-124; 0.3162 µM): 0.224
- increase in dead-cell fraction (YKL-5-124; 1 µM): 0.144
- increase in dead-cell fraction (YKL-5-124; 3.162 µM): 0.293
- increase in dead-cell fraction (YKL-5-124; 10 µM): 0.304
- increase in dead-cell fraction (BSJ-03-123; 0.001 µM): 0.0124
- increase in dead-cell fraction (BSJ-03-123; 0.003162 µM): -0.0077
- increase in dead-cell fraction (BSJ-03-123; 0.01 µM): 0.0297
- increase in dead-cell fraction (BSJ-03-123; 0.03162 µM): 0.0411
- increase in dead-cell fraction (BSJ-03-123; 0.1 µM): 0.0394
- increase in dead-cell fraction (BSJ-03-123; 0.3162 µM): 0.0338
- increase in dead-cell fraction (BSJ-03-123; 1 µM): 0.131
- increase in dead-cell fraction (BSJ-03-123; 3.162 µM): 0.119
- increase in dead-cell fraction (BSJ-03-123; 10 µM): 0.363
- increase in dead-cell fraction ([4]; 0.0003162 µM): -0.0026
- increase in dead-cell fraction ([4]; 0.001 µM): 0.0007
- increase in dead-cell fraction ([4]; 0.003162 µM): -0.0013
- increase in dead-cell fraction ([4]; 0.01 µM): -0.0019
- increase in dead-cell fraction ([4]; 0.03162 µM): 0.0014
- increase in dead-cell fraction ([4]; 0.1 µM): 0.0147
- increase in dead-cell fraction ([4]; 0.3162 µM): 0.0168
- increase in dead-cell fraction ([4]; 1 µM): 0.0267
- increase in dead-cell fraction ([4]; 3.162 µM): 0.0446
- increase in dead-cell fraction ([5]; 0.001 µM): 0.0004
- increase in dead-cell fraction ([5]; 0.003162 µM): -0.0056
- increase in dead-cell fraction ([5]; 0.01 µM): -0.0023
- increase in dead-cell fraction ([5]; 0.03162 µM): 0.002
- increase in dead-cell fraction ([5]; 0.1 µM): 0.0067
- increase in dead-cell fraction ([5]; 0.3162 µM): 0.0112
- increase in dead-cell fraction ([5]; 1 µM): 0.0329
- increase in dead-cell fraction ([5]; 3.162 µM): 0.0399
- increase in dead-cell fraction ([5]; 10 µM): 0.111
- increase in dead-cell fraction (Neratinib/HKI272; 0.0003162 µM): -0.0015
- increase in dead-cell fraction (Neratinib/HKI272; 0.001 µM): 0.0018
- increase in dead-cell fraction (Neratinib/HKI272; 0.003162 µM): 0.0002
- increase in dead-cell fraction (Neratinib/HKI272; 0.01 µM): -0.0031
- increase in dead-cell fraction (Neratinib/HKI272; 0.03162 µM): -0.0026
- increase in dead-cell fraction (Neratinib/HKI272; 0.1 µM): 0.0016
- increase in dead-cell fraction (Neratinib/HKI272; 0.3162 µM): 0.0161
- increase in dead-cell fraction (Neratinib/HKI272; 1 µM): 0.0278
- increase in dead-cell fraction (Neratinib/HKI272; 3.162 µM): 0.106
- increase in dead-cell fraction ([6]; 0.0001 µM): -0.0004
- increase in dead-cell fraction ([6]; 0.0003162 µM): -0.0019
- increase in dead-cell fraction ([6]; 0.001 µM): 0.0008
- increase in dead-cell fraction ([6]; 0.003162 µM): 0.0059
- increase in dead-cell fraction ([6]; 0.01 µM): 0.0263
- increase in dead-cell fraction ([6]; 0.03162 µM): 0.571
- increase in dead-cell fraction ([6]; 0.1 µM): 0.558
- increase in dead-cell fraction ([6]; 0.3162 µM): 0.535
- increase in dead-cell fraction ([6]; 1 µM): 0.511
- increase in dead-cell fraction (LEE011/Ribociclib [7]; 0.001 µM): 0.0038
- increase in dead-cell fraction (LEE011/Ribociclib [7]; 0.003162 µM): 0.0127
- increase in dead-cell fraction (LEE011/Ribociclib [7]; 0.01 µM): 0.0406
- increase in dead-cell fraction (LEE011/Ribociclib [7]; 0.03162 µM): 0.0372
- increase in dead-cell fraction (LEE011/Ribociclib [7]; 0.1 µM): 0.0514
- increase in dead-cell fraction (LEE011/Ribociclib [7]; 0.3162 µM): 0.0715
- increase in dead-cell fraction (LEE011/Ribociclib [7]; 1 µM): 0.0391
- increase in dead-cell fraction (LEE011/Ribociclib [7]; 3.162 µM): 0.0932
- increase in dead-cell fraction (LEE011/Ribociclib [7]; 10 µM): 0.132
- increase in dead-cell fraction (THZ531; 0.0001 µM): -0.0002
- increase in dead-cell fraction (THZ531; 0.0003162 µM): -0.0145
- increase in dead-cell fraction (THZ531; 0.001 µM): 0.0054
- increase in dead-cell fraction (THZ531; 0.003162 µM): -0.0171
- increase in dead-cell fraction (THZ531; 0.01 µM): -0.0178
- increase in dead-cell fraction (THZ531; 0.03162 µM): 0.0065
- increase in dead-cell fraction (THZ531; 0.1 µM): 0.0042
- increase in dead-cell fraction (THZ531; 0.3162 µM): 0.175
- increase in dead-cell fraction (THZ531; 1 µM): 0.386
- increase in dead-cell fraction (THZ1; 0.0001 µM): -0.0026
- increase in dead-cell fraction (THZ1; 0.0003162 µM): 0.0021
- increase in dead-cell fraction (THZ1; 0.001 µM): 0.0031
- increase in dead-cell fraction (THZ1; 0.003162 µM): 0.0375
- increase in dead-cell fraction (THZ1; 0.01 µM): 0.292
- increase in dead-cell fraction (THZ1; 0.03162 µM): 0.545
- increase in dead-cell fraction (THZ1; 0.1 µM): 0.528
- increase in dead-cell fraction (THZ1; 0.3162 µM): 0.548
- increase in dead-cell fraction (THZ1; 1 µM): 0.71
- increase in dead-cell fraction (Flavopiridol; 0.0001 µM): -0.0184
- increase in dead-cell fraction (Flavopiridol; 0.0003162 µM): -0.0042
- increase in dead-cell fraction (Flavopiridol; 0.001 µM): 0.0033
- increase in dead-cell fraction (Flavopiridol; 0.003162 µM): 0.0052
- increase in dead-cell fraction (Flavopiridol; 0.01 µM): 0.0001
- increase in dead-cell fraction (Flavopiridol; 0.03162 µM): 0.007
- increase in dead-cell fraction (Flavopiridol; 0.1 µM): 0.051
- increase in dead-cell fraction (Flavopiridol; 0.3162 µM): 0.183
- increase in dead-cell fraction (Flavopiridol; 1 µM): 0.577
